The target in assay [1] is T1, MAPK1(ERK2) enzyme (Homo sapiens, UniProt P28482).
T1 construct: purchased Invitrogen PV3313
Nature of the assay: Z-Lyte Kinase Assay of ERK2. Conditions: read-out: Example 18 IC50. Type of assay: biochemical. The method in brief:
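FRET-based Z-LYTE assay using ERK2 kinase with Ser/Thr3 peptide; compound tested at 0.00046–1 μM final in 2% DMSO. Kinase reaction ran 1 h at 25-30° C, followed by 1 h development. The coumarin/fluorescein emission ratio (445/520 nm) gave % phosphorylation, and IC50 was fitted from inhibition relative to uninhibited control.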

In assay [2] the test system is p-RSK (Thr359) in colo205 cells. Nature of the assay: p-RSK (Thr359) Acumen Assay in Colo205. In kind it is cell-based. The conditions noted are these: Homo sapiens, COLO 205, 1 hour compound incubation, read-out: Example 19 IC50. A digest of the protocol: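 Colo205 cells (4000/well, seeded overnight in 10% FBS) were exposed 1 hour at 37° C to compound added from a 3–0.001 μM dilution series in 5% DMSO. Cells were then fixed, permeabilised and immunostained for p-RSK Thr359, with PI counterstain. Acumen cytometry gave the percentage of positive cells, normalised to untreated wells and 3 uM GDC0994 wells, for the IC50 fit.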

Structures are written as SMILES.

T1 sequence (P28482 whole entry): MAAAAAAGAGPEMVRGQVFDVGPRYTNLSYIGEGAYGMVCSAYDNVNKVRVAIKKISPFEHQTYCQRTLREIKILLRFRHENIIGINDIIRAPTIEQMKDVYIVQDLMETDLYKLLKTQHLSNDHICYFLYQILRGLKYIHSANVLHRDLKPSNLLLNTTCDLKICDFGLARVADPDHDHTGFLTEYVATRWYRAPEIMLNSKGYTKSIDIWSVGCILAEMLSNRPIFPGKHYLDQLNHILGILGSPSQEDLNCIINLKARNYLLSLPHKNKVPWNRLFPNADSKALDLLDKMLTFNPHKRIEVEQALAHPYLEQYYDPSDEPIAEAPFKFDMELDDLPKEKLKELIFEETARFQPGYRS

As a reminder, the IC50 is the concentration that inhibits the measured activity by half. In the case of `Cc1cnc(Nc2ccnn2C)nc1-c1cc2n(c1)C[C@H](CF)n1c-2nnc1C(F)(F)c1c(F)cccc1F` [Compound 189], the IC50 in assay [1] is 5 to 10 nM; in assay [2], at most 100 nM.

As to `Cn1nccc1Nc1cc(-c2cc3n(c2)C[C@H](CF)n2c-3nnc2C(F)(F)c2ccccc2F)c(Cl)cn1` [Compound 190], the half-inhibitory concentration (IC50) in assay [1] was over 10 nM; in assay [2], at most 100 nM.

As for `Cn1nccc1Nc1cc(-c2cc3n(c2)C[C@H](CF)n2c-3nnc2C(F)(F)c2cccc(F)c2)c(Cl)cn1` [Compound 191], the IC50 in assay [1] was 5 to 10 nM; in assay [2], over 100 nM.

In the case of `Cn1nccc1Nc1cc(-c2cc3n(c2)C[C@H](CF)n2c-3nnc2C(F)(F)c2ccccc2Cl)c(F)cn1` [Compound 192], the IC50 in assay [1] was over 10 nM; in assay [2], at most 100 nM.

For the compound `Cn1nccc1Nc1ncc(F)c(-c2cc3n(c2)C[C@H](CF)n2c-3nnc2C(F)(F)c2ccccc2Cl)n1` [Compound 193], the results for the IC50 in assay [1] and in assay [2] were 5 to 10 nM and at most 100 nM, respectively.

Consider `Cn1nccc1Nc1cc(-c2cc3n(c2)C[C@H](CF)n2c-3nnc2C(F)(F)c2ncccc2F)c(Cl)cn1` [Compound 194], for which the IC50 was at most 5 nM in assay [1] and at most 100 nM in assay [2].

Take `Cc1cnc(Nc2ccnn2C)cc1-c1cc2n(c1)C[C@H](CF)n1c-2nnc1C(F)(F)c1sccc1Cl` [Compound 195]: the values for the IC50 in assay [1] and in assay [2] were at most 5 nM and at most 100 nM, respectively.

As for `Cn1nccc1Nc1cc(-c2cc3n(c2)C[C@H](C(F)F)n2c-3nnc2C(F)(F)c2ccccc2F)c(F)cn1` [Compound 196], the IC50 in assay [1] is 5 to 10 nM; in assay [2], at most 100 nM.

With `Cc1cnc(Nc2ccnn2C)cc1-c1cc2n(c1)C[C@H](CF)n1c-2nnc1C(F)(F)c1noc2ccccc12` [Compound 197], the IC50 in assay [1] is 5 to 10 nM; in assay [2], over 100 nM.

On to `Cc1cnc(Nc2ccnn2C)cc1-c1cc2n(c1)C[C@H](C(F)F)n1c-2nnc1C(F)(F)n1cc(Cl)cn1` [Compound 198], for which the half-inhibitory concentration (IC50) is at most 5 nM in assay [1] and at most 100 nM in assay [2].

As for `Cn1nccc1Nc1cc(-c2cc3n(c2)CC(F)(F)Cn2c(Cn4ncc5ccccc54)nnc2-3)c(Cl)cn1` [Compound 199], the concentration for half-maximal inhibition (IC50) in assay [1] is 5 to 10 nM; in assay [2], over 100 nM.

On to `Cn1nccc1Nc1cc(-c2cc3n(c2)C[C@H](CF)n2c-3nnc2C(F)(F)n2cc(Cl)cn2)c(Cl)cn1` [Compound 200], for which the IC50 was 5 to 10 nM in assay [1] and at most 100 nM in assay [2].

`COC[C@H]1Cn2cc(-c3cc(Nc4ccnn4C)ncc3C)cc2-c2nnc(C(F)(F)c3ccccc3Cl)n21` [Compound 201]: the 50% inhibitory concentration (IC50) is over 10 nM in assay [1] and at most 100 nM in assay [2].

Take `COC[C@H]1Cn2cc(-c3nc(Nc4ccnn4C)ncc3C)cc2-c2nnc(C(F)(F)c3ccccc3Cl)n21` [Compound 202]: the IC50 in assay [1] is 5 to 10 nM; in assay [2], at most 100 nM.

For `Cn1nccc1Nc1cc(-c2cc3n(c2)C[C@H](Cc2ccccc2)n2c(CCC(F)(F)F)nnc2-3)c(Cl)cn1` [Compound 203], the IC50 in assay [1] is 5 to 10 nM; in assay [2] it was at most 100 nM.

In the case of `Cc1cnc(Nc2ccnn2C)cc1-c1cc2n(c1)C[C@H](C(F)F)n1c-2nnc1C(F)(F)c1ccccc1Cl` [Compound 204], the IC50 in assay [1] was over 10 nM; in assay [2], at most 100 nM.

For `Cc1cnc(Nc2ccnn2C)nc1-c1cc2n(c1)C[C@H](C(F)F)n1c-2nnc1C(F)(F)c1ccccc1Cl` [Compound 205], the 50% inhibitory concentration (IC50) was over 10 nM in assay [1] and at most 100 nM in assay [2].

As for `Cn1nccc1Nc1cc(-c2cc3n(c2)C[C@H](CF)n2c-3nnc2C(F)(F)c2ccccc2Cl)c(Cl)cn1` [Compound 206], the IC50 in assay [1] is over 10 nM; in assay [2], at most 100 nM.

Take `Cn1nccc1Nc1cc(-c2cc3n(c2)C[C@H](CF)n2c-3nnc2C(F)(F)c2ncccc2Cl)c(Cl)cn1` [Compound 207]: the values for the IC50 in assay [1] and in assay [2] were at most 5 nM and at most 100 nM, respectively.

In the case of `Cn1nccc1Nc1cc(-c2cc3n(c2)C[C@H](C(F)F)n2c-3nnc2C(F)(F)c2ccccc2F)c(Cl)cn1` [Compound 208], the figures for the IC50 in assay [1] and in assay [2] were over 10 nM and at most 100 nM, respectively.

Regarding `Cn1nccc1Nc1cc(-c2cc3n(c2)C[C@H](C(F)F)n2c-3nnc2C(F)(F)n2cc(Cl)cn2)c(Cl)cn1` [Compound 209], the values for the IC50 in assay [1] and in assay [2] were 5 to 10 nM and at most 100 nM, respectively.

Regarding `Cn1nccc1Nc1cc(-c2cc3n(c2)C[C@H](Cc2ccccc2)n2c-3nnc2C2(C(F)(F)F)CCC2)c(Cl)cn1` [Compound 210], the figures for the IC50 in assay [1] and in assay [2] were over 10 nM and over 100 nM, respectively.

On to `Cn1nccc1Nc1ncc(Cl)c(-c2cc3n(c2)CCCn2c(COc4ccccc4F)nnc2-3)n1` [Compound 211, 5-chloro-4-(3-((2-fluorophenoxy)methyl)-6,7-dihydro-5H-pyrrolo[1,2-a][1,2,4]triazolo[3,4-c][1,4]diazepin-10-yl)-N-(1-methyl-1H-pyrazol-5-yl)pyrimidin-2-amine], for which the IC50 is 5 to 10 nM in assay [1] and at most 100 nM in assay [2].

Turning to `Cn1nccc1Nc1ncc(Cl)c(-c2cc3c4nnc(CC(F)(F)F)n4ccn3c2)n1` [Compound 212], the IC50 in assay [1] is at most 5 nM; in assay [2], at most 100 nM.

Consider `Cn1nccc1Nc1ncc(Cl)c(-c2cc3n(c2)CCCn2c(COC4(C(F)(F)F)CCC4)nnc2-3)n1` [Compound 213], for which the IC50 was at most 5 nM in assay [1] and at most 100 nM in assay [2].

On to `COc1cnc(Nc2ccnn2C)cc1-c1cc2n(c1)CC(F)(F)Cn1c-2nnc1C1(C(F)(F)F)CCC1` [Compound 214], for which the results for the 50% inhibitory concentration (IC50) in assay [1] and in assay [2] were 5 to 10 nM and over 100 nM, respectively.

In the case of `Cn1nccc1Nc1cc(-c2cc3n(c2)C[C@H](O)Cn2c-3nnc2C2(C(F)(F)F)CCC2)c(Cl)cn1` [Compound 215, (S)-10-(5-chloro-2-((1-methyl-1H-pyrazol-5-yl)amino)pyridin-4-yl)-3-(1-(trifluoromethyl)cyclobutyl)-6,7-dihydro-5H-pyrrolo[1,2-a][1,2,4]triazolo[3,4-c][1,4]diazepin-6-ol], the IC50 was at most 5 nM in assay [1] and at most 100 nM in assay [2].

Consider `Cn1nccc1Nc1cc(-c2cc3n(c2)C[C@@H](O)Cn2c-3nnc2C2(C(F)(F)F)CCC2)c(Cl)cn1` [Compound 216], for which the figures for the IC50 in assay [1] and in assay [2] were at most 5 nM and at most 100 nM, respectively.

Consider `Cn1nccc1Nc1cc(-c2cc3n(c2)CC(F)(F)Cn2c(Cn4cccc4C#N)nnc2-3)c(Cl)cn1` [Compound 217, 1-((10-(5-chloro-2-((1-methyl-1H-pyrazol-5-yl)amino)pyridin-4-yl)-6,6-difluoro-6,7-dihydro-5H-pyrrolo[1,2-a][1,2,4]triazolo[3,4-c][1,4]diazepin-3-yl)methyl)-1H-pyrrole-2-carbonitrile], for which the IC50 is at most 5 nM in assay [1] and at most 100 nM in assay [2].

`Cn1nccc1Nc1cc(-c2cc3n(c2)CC(F)(F)Cn2c(Cn4ccc(F)c4C#N)nnc2-3)c(Cl)cn1` [Compound 218]: the IC50 was 5 to 10 nM in assay [1] and at most 100 nM in assay [2].

As to `Cn1nccc1Nc1cc(-c2cc3n(c2)CC(F)(F)Cn2c(Cn4cc(F)cc4C#N)nnc2-3)c(Cl)cn1` [Compound 219], the results for the IC50 in assay [1] and in assay [2] were at most 5 nM and over 100 nM, respectively.

With `COC[C@H]1Cn2cc(-c3nc(Nc4ccnn4C)ncc3C)nc2-c2nnc(C(F)(F)c3ccccc3Cl)n21` [Compound 220, (R)-4-(3-((2-chlorophenyl)difluoromethyl)-5-(methoxymethyl)-5,6-dihydroimidazo[1,2-a][1,2,4]triazolo[3,4-c]pyrazin-9-yl)-5-methyl-N-(1-methyl-1H-pyrazol-5-yl)pyrimidin-2-amine], the IC50 was at most 5 nM in assay [1] and at most 100 nM in assay [2].

`Cc1cnc(Nc2ccnn2C)nc1-c1cn2c(n1)-c1nnc(C(F)(F)c3ccccc3Cl)n1[C@H](C)C2` [Compound 221]: the IC50 in assay [1] is at most 5 nM; in assay [2] it was at most 100 nM.

Consider `Cc1cnc(Nc2ccnn2C)nc1-c1cn2c(n1)-c1nnc(C(F)(F)c3ccccc3Cl)n1[C@@H](C)C2` [Compound 222], for which the IC50 in assay [1] was at most 5 nM; in assay [2] it was at most 100 nM.

As to `COC[C@H]1Cn2cc(-c3nc(Nc4ccnn4C)ncc3C)nc2-c2nnc(C(F)(F)c3ccccc3F)n21` [Compound 223], the IC50 was at most 5 nM in assay [1] and at most 100 nM in assay [2].

Regarding `Cc1cnc(Nc2ccnn2C)nc1-c1cn2c(n1)-c1nnc(C(F)(F)c3ccccc3Cl)n1[C@H](CF)C2` [Compound 224], the figures for the IC50 in assay [1] and in assay [2] were at most 5 nM and at most 100 nM, respectively.

With `Cc1cnc(Nc2ccnn2C)nc1-c1cn2c(n1)-c1nnc(C(F)(F)c3ccccc3Cl)n1[C@@H](CF)C2` [Compound 225], the IC50 in assay [1] was at most 5 nM; in assay [2], at most 100 nM.

Consider `Cc1cnc(Nc2ccnn2C(F)F)nc1-c1cn2c(n1)-c1nnc(C(F)(F)c3ccccc3F)n1[C@@H](C)C2` [Compound 226], for which the IC50 in assay [1] is at most 5 nM; in assay [2] it was at most 100 nM.

Take `C[C@H]1Cn2cc(-c3ccnc(Nc4ccnn4C(F)F)n3)nc2-c2nnc(C(F)(F)c3ccccc3Cl)n21` [Compound 227]: the values for the IC50 in assay [1] and in assay [2] were at most 5 nM and at most 100 nM, respectively.

Regarding `Cc1cnc(Nc2ccnn2C(F)F)nc1-c1cn2c(n1)-c1nnc(C(F)(F)c3ccccc3Cl)n1[C@@H](C)C2` [Compound 228], the IC50 was at most 5 nM in assay [1] and at most 100 nM in assay [2].

In the case of `C[C@@H](CO)Nc1cc(-c2cc3n(c2)CCCn2c-3nnc2C2(C(F)(F)F)CCC2)c(Cl)cn1` [Compound 229, (S)-2-((5-chloro-4-(3-(1-(trifluoromethyl)cyclobutyl)-6,7-dihydro-5H-pyrrolo[1,2-a][1,2,4]triazolo[3,4-c][1,4]diazepin-10-yl)pyridin-2-yl)amino)propan-1-ol], the half-inhibitory concentration (IC50) was at most 5 nM in assay [1] and at most 100 nM in assay [2].

The values are drawn from patent US12492210B2, “Tricyclic compounds and their use” (HUTCHISON MEDIPHARMA LIMITED, priority 2019, dated 2025).
